These results are taken from US10723709B2, “Protease inhibitors” (MEDIVIR AB, priority 2008, dated 2020).

Data set [1] is described as follows: In vivo mouse PK, oral administration (FIG. 1). Further details: species or system male C57Bl mice. To be noted: mice, orally administered 60 μmol/kg in 1% Methocel A4C vehicle; compared with Example 2 of WO2008 007107. An excerpt: FIG. 1 depicts plasma concentration against time for male C57Bl mice orally administered a compound of the invention or a compound of the prior art.
Various embodiments of the invention will now be described by way of illustration only with reference to the following Examples and FIG. 1 which depicts plasma concentration against time for male C57Bl mice orally administered a compound of the invention or a compound of the prior art.

The conditions of data set [2]: reference markers of the permeability assay; cited from earlier work.

Method for Caco-2 cells: This experiment measures transport of inhibitors through the cells of the human gastroenteric canal. The assay uses the well known Caco-2 cells with a passage number between 40 and 60.
Apical to Basolateral Transport
The basolateral and the apical wells will contain 1.5 mL and 0.4 mL transport buffer (TB), respectively, and the standard concentration of the tested substances is 10 μM. Furthermore all test solutions and buffers will contain 1% DMSO. Prior to the experiment the transport plates are pre-coated with culture medium containing 10% serum for 30 minutes to avoid nonspecific binding to plastic material. After 21 to 28 days in culture on filter supports the cells are ready for permeability experiments. […]
0.5 mL transport buffer (HBSS, 25 mM MES, pH 6.5) is added to the inserts and the cell monolayers equilibrated in the transport buffer system for 30 minutes at 37° C. in a polymix shaker. After being equilibrated to the buffer system the Transepithelial electrical resistance value (TEER) is measured in each well by an EVOM chop stick instrument. […]
300 μL will be taken from the basolateral (receiver) wells at each scheduled time point and the post value of TEER is measured at the end the experiment. […]
Determination of the cumulative fraction absorbed, FAcum, versus time. FAcum is calculated from: […]
The determination of permeability coefficients (Papp, cm/s) are calculated from: […]

In turn, “N—((S)-1-((3aS, 6R, 6aS)-6-methoxy-oxodihydro-2H-furo[3,2-b]pyrrol-4(5H, 6H, 6aH)-yl)-4-methyl-oxopentan-2-yl)-4-(2-(4-methylpiperazine-1-yl)thiazol-4-yl)benzamide” returned a papp value in the data set on Caco-2 cells of 9e-07 cm/s.

As to `C#C[C@@H]1CN(C(=O)[C@H](CC(C)C)NC(=O)c2ccc(-c3nc(N4CCN(C)CC4)sc3F)cc2)[C@@H]2C(=O)CO[C@H]12` [Example 2, N-[1-6-(ethynyl-3-oxo-hexahydro-furo[3,2-b]pyrrole-4-carbonyl)-3-methyl-butyl]-4-[5-fluoro-2-(4-methyl-piperazin-1-yl)thiazol-4-yl]-benzamide], the “in vivo exposure (whether measured as Cmax or AUC)” value in data set [1] is “very much greater”.

In the case of `N[C@@H](Cc1ccccc1)C(=O)O` [L-Phenylalanine], the “% absorption in man” value in data set [2] is listed as 100%.

For the molecule `CN(Cc1cnc2nc(N)nc(N)c2n1)c1ccc(C(=O)N[C@@H](CCC(=O)O)C(=O)O)cc1` [Methotrexate], in data set [2], the “% absorption in man” value is 20%.

For the molecule `OC[C@@H](O)[C@@H](O)[C@H](O)[C@H](O)CO` [Mannitol], the “% absorption in man” value in data set [2] is on record as 16%.
